Experiments:
[1] = Antiproliferative activity against human Z138 cells assessed as inhibition of cell viability after 5 days by Cell-Titer Glo assay; format: functional, cell-based; conditions: Z-138, 120 h
[2] = biological target: Protein arginine N-methyltransferase 5 (Homo sapiens, UniProt O14744); assay: Inhibition of PRMT5 in human Z138 cells assessed as decrease in di-methyl arginine levels after 96 hrs by Western blot method; format: cell-based
PRMT5/MEP50 complex = PRMT5/MEP50 complex (Homo sapiens, UniProt O14744); assay: Inhibition of recombinant human fetal brain FLAG-tagged PRMT5/full length human testis 6His-tagged MEP50 expressed in baculovirus infected insect Sf9 cells using human histone H4 (1 to 15 residues) as substrate preincubated for 30 mins followed by [3H]-SAM addition
Sequence of PRMT5/MEP50 complex (O14744 whole entry, the tested form may be a part): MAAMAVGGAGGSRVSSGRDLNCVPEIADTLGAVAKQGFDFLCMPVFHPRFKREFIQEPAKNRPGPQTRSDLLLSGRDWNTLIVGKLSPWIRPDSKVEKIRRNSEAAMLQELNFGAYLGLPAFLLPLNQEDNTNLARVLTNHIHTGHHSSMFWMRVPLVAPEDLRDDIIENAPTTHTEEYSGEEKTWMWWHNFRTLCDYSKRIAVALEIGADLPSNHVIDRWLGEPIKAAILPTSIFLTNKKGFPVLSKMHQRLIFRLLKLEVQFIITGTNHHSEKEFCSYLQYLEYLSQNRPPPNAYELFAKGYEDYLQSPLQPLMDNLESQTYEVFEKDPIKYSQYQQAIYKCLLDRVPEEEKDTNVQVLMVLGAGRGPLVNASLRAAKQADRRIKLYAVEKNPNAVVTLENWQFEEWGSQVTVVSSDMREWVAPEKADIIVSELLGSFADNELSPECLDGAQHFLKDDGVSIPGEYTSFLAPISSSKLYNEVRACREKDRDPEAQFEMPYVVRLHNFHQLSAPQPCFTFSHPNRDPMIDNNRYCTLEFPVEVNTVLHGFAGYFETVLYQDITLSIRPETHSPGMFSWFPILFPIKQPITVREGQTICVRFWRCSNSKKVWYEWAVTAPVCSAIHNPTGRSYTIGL
Sequence of PRMT5/MEP50 complex (Q9BQA1 whole entry, further chain, the tested form may be a part): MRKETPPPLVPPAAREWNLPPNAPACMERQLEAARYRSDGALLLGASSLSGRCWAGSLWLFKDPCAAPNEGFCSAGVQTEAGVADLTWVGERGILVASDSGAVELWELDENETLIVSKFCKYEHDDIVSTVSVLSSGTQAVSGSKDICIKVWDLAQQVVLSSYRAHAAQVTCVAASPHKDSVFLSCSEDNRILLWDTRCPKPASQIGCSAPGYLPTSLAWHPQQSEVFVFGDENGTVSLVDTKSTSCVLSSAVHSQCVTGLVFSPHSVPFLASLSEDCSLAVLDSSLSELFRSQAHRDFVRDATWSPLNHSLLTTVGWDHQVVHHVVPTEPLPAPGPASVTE

Sequence of Protein arginine N-methyltransferase 5 (O14744 whole entry, the tested form may be a part): as the sequence (O14744 whole entry, the tested form may be a part) above

Structure (SMILES) | EC50 [1] [nM] | EC50 [2] [nM] | IC50 (PRMT5/MEP50 complex) [nM]
NC(=O)c1ccc(-c2cccc(OCC(O)CN3CCc4ccccc4C3)c2)cc1 (stereo unspecified) | > 20000 | 1000 to 10000 | 101 to 1000
CS(=O)(=O)c1cccc(-c2cccc(OCC(O)CN3CCc4ccccc4C3)c2)c1 (stereo unspecified) | > 20000 | 1000 to 10000 | 101 to 1000
OC(COc1cccc(-c2cc(C(F)(F)F)ccc2Cl)c1)CN1CCc2ccccc2C1 (stereo unspecified) | 10000 to 40000 | 1000 to 10000 | 101 to 1000
Cc1ccc(F)c(-c2cccc(OCC(O)CN3CCc4ccccc4C3)c2)c1 (stereo unspecified) | > 20000 | 1000 to 10000 | 101 to 1000
CN(CC(O)CN1CCc2ccccc2C1)c1cccc(CNC2CCOCC2)c1 (stereo unspecified) | > 20000 | 1000 to 10000 | < 100
Cn1cnc2cc(-c3cccc(OCC(O)CN4CCc5ccccc5C4)c3)ccc21 (stereo unspecified) | 10000 to 40000 | 101 to 1000 | 101 to 1000
OC(COc1cccc(-c2cccnc2F)c1)CN1CCc2ccccc2C1 (stereo unspecified) | > 20000 | 1000 to 10000 | 101 to 1000
N#Cc1ccccc1-c1cccc(OCC(O)CN2CCc3ccccc3C2)c1 (stereo unspecified) | 10000 to 40000 | 1000 to 10000 | 101 to 1000
Cn1ccc(C(=O)Nc2cccc(OCC(O)CN3CCc4ccccc4C3)c2)n1 (stereo unspecified) | > 20000 | 1000 to 10000 | 1000 to 10000
OC(COc1cccc(-c2ccccc2Cl)c1)CN1CCc2ccccc2C1 (stereo unspecified) | 10000 to 40000 | 1000 to 10000 | 101 to 1000
O=C(Nc1cccc(OCC(O)CN2CCc3ccccc3C2)c1)c1cncnc1 (stereo unspecified) | > 20000 | 1000 to 10000 | 1000 to 10000
COC(=O)c1cccc(-c2cccc(OCC(O)CN3CCc4ccccc4C3)c2)c1 (stereo unspecified) | > 20000 | > 20000 | 101 to 1000
COc1ccc(Cl)cc1-c1cccc(OCC(O)CN2CCc3ccccc3C2)c1 (stereo unspecified) | > 20000 | 1000 to 10000 | 101 to 1000
Cn1ccc2ccc(-c3cccc(OCC(O)CN4CCc5ccccc5C4)c3)cc21 (stereo unspecified) | 10000 to 40000 | 1000 to 10000 | 101 to 1000
OC(COc1cccc(-c2ccc(C(F)(F)F)cc2C(F)(F)F)c1)CN1CCc2ccccc2C1 (stereo unspecified) | > 20000 | 10000 to 40000 | 101 to 1000
CC1c2ccccc2CCN1CC(O)COc1cccc(-c2ccc3ncn(C)c3c2)c1 (stereo unspecified) | 1000 to 10000 | > 20000 | 101 to 1000
CN1CCN(c2ccc(-c3cccc(OCC(O)CN4CCc5ccccc5C4)c3)cn2)CC1 (stereo unspecified) | 1000 to 10000 | 1000 to 10000 | 101 to 1000
CC(C)n1cnc2ccc(-c3cccc(OCC(O)CN4CCc5ccccc5C4)c3)cc21 (stereo unspecified) | 10000 to 40000 | 101 to 1000 | 101 to 1000
CN(C)c1ncc(-c2cccc(OCC(O)CN3CCc4ccccc4C3)c2)cn1 (stereo unspecified) | 10000 to 40000 | 1000 to 10000 | 101 to 1000
Cc1ccncc1-c1cccc(OCC(O)CN2CCc3ccccc3C2)c1 (stereo unspecified) | 10000 to 40000 | 101 to 1000 | 101 to 10000
Cn1cnc2ccc(-c3cccc(NCC(O)CN4CCc5ccccc5C4)n3)cc21 (stereo unspecified) | > 20000 | 1000 to 10000 | 101 to 1000
O=C1COc2ccc(-c3cccc(OCC(O)CN4CCc5ccccc5C4)c3)cc2N1 (stereo unspecified) | 10000 to 40000 | 1000 to 10000 | 101 to 1000
OC(COc1cccc(-c2cnc3ccccc3c2)c1)CN1CCc2ccccc2C1 (stereo unspecified) | 10000 to 40000 | 1000 to 10000 | 101 to 1000

Structure (SMILES) | EC50 [1] [nM] | EC50 [2] [nM] | IC50 (PRMT5/MEP50 complex) [nM]
OC(COc1cccc(-c2ccc3ncn(-c4ccccc4)c3c2)c1)CN1CCc2ccccc2C1 (stereo unspecified) | > 20000 | 1000 to 10000 | 101 to 1000
Cn1cnc2ccc(-c3ccnc(NCC(O)CN4CCc5ccccc5C4)c3)cc21 (stereo unspecified) | 1000 to 10000 | 101 to 1000 | < 100
OC(COc1cccc(-c2ccc3cnoc3c2)c1)CN1CCc2ccccc2C1 (stereo unspecified) | > 20000 | 10000 to 40000 | 1000 to 10000
Cn1cnc2ccc(-c3cncc(NCC(O)CN4CCc5ccccc5C4)n3)cc21 (stereo unspecified) | > 20000 | 101 to 1000 | 101 to 1000
COc1ccc(-c2cccc(OCC(O)CN3CCc4ccccc4C3)c2)c(Cl)c1 (stereo unspecified) | 10000 to 40000 | 1000 to 10000 | 101 to 1000
OC(COc1cccc(-c2cccc3c2oc2ccccc23)c1)CN1CCc2ccccc2C1 (stereo unspecified) | 10000 to 40000 | 1000 to 10000 | 101 to 1000
OC(COc1cccc(-c2ccc3ncn(Cc4ccccc4)c3c2)c1)CN1CCc2ccccc2C1 (stereo unspecified) | 10000 to 40000 | 1000 to 10000 | < 100
O=C(Nc1cccc(OCC(O)CN2CCc3ccccc3C2)c1)c1cnccn1 (stereo unspecified) | > 20000 | 1000 to 10000 | 101 to 1000
OC(COc1cccc(-c2ccc3nn[nH]c3c2)c1)CN1CCc2ccccc2C1 (stereo unspecified) | 1000 to 10000 | 1000 to 10000 | 101 to 1000
O=c1[nH]c2ccc(-c3cccc(OCC(O)CN4CCc5ccccc5C4)c3)cc2[nH]1 (stereo unspecified) | 10000 to 20000 | 101 to 20000 | 101 to 1000
CC(=O)c1cccc(-c2cccc(OCC(O)CN3CCc4ccccc4C3)c2)c1 (stereo unspecified) | 10000 to 40000 | 1000 to 10000 | 101 to 1000
Cn1ncc2cc(-c3cccc(OCC(O)CN4CCc5ccccc5C4)c3)ccc21 (stereo unspecified) | 10000 to 40000 | 1000 to 10000 | < 100
CS(=O)(=O)c1ccc(-c2cccc(OCC(O)CN3CCc4ccccc4C3)c2)cc1 (stereo unspecified) | 10000 to 40000 | 1000 to 10000 | 101 to 1000
CC(C)(C)OCc1cccc(-c2cccc(OCC(O)CN3CCc4ccccc4C3)c2)c1 (stereo unspecified) | > 20000 | 1000 to 10000 | 101 to 1000
CN(C)c1ccc(-c2cccc(OCC(O)CN3CCc4ccccc4C3)c2)cc1 (stereo unspecified) | > 20000 | 1000 to 10000 | 101 to 1000
Oc1cccc(-c2cccc(OCC(O)CN3CCc4ccccc4C3)c2)c1 (stereo unspecified) | 10000 to 40000 | 1000 to 10000 | 101 to 1000
CS(=O)(=O)Nc1ccc(-c2cccc(OCC(O)CN3CCc4ccccc4C3)c2)cc1 (stereo unspecified) | 10000 to 40000 | 1000 to 10000 | 101 to 1000
N#Cc1ccc(-c2cccc(OCC(O)CN3CCc4ccccc4C3)c2)cc1 (stereo unspecified) | 10000 to 40000 | 1000 to 10000 | 101 to 1000
O=C(c1cccc(-c2cccc(OCC(O)CN3CCc4ccccc4C3)c2)c1)N1CCOCC1 (stereo unspecified) | > 20000 | 1000 to 10000 | 101 to 1000
COc1ccc(Cn2cnc3ccc(-c4cccc(OCC(O)CN5CCc6ccccc6C5)c4)cc32)cc1 (stereo unspecified) | 10000 to 40000 | 1000 to 10000 | 101 to 1000
OC(COc1cccc(-c2ccccc2C(F)(F)F)c1)CN1CCc2ccccc2C1 (stereo unspecified) | > 20000 | 1000 to 10000 | 101 to 1000
OC(COc1cccc(-c2ccc(C(F)(F)F)cc2Cl)c1)CN1CCc2ccccc2C1 (stereo unspecified) | > 20000 | 10000 to 40000 | 101 to 1000
OC(COc1cccc(-c2ccc3nc[nH]c3c2)c1)CN1CCc2ccccc2C1 (stereo unspecified) | 10000 to 40000 | 1000 to 10000 | 101 to 1000

Structure (SMILES) | EC50 [1] [nM] | EC50 [2] [nM] | IC50 (PRMT5/MEP50 complex) [nM]
Cn1cnc2ccc(-c3ccnc(NCC(O)CN4CCc5ccccc5C4)n3)cc21 (stereo unspecified) | 1000 to 10000 | 101 to 1000 | 101 to 1000
Cn1nccc1C(=O)Nc1cccc(OCC(O)CN2CCc3ccccc3C2)c1 (stereo unspecified) | > 20000 | 1000 to 10000 | 1000 to 10000
Cn1cnc2ccc(-c3cccc(NCC(O)CN4CCc5ccccc5C4)c3)cc21 (stereo unspecified) | 1000 to 10000 | 101 to 1000 | < 100
OC(COc1cccc(-c2ccc3ncn(C4CCOCC4)c3c2)c1)CN1CCc2ccccc2C1 (stereo unspecified) | 1000 to 10000 | 101 to 1000 | 101 to 1000
Cn1ccc2cnc(-c3cccc(OCC(O)CN4CCc5ccccc5C4)c3)nc21 (stereo unspecified) | > 20000 | 101 to 1000 | < 100
Cn1ncc2ccc(-c3cc(COCC(O)CN4CCc5ccccc5C4)on3)cc21 (stereo unspecified) | > 20000 | 1000 to 10000 | 101 to 1000
COc1ccc(-c2cccc(OCC(O)CN3CCc4ccccc4C3)c2)cc1 (stereo unspecified) | 10000 to 40000 | 1000 to 10000 | 101 to 1000
OC(COc1cccc(-c2ccc3c(c2)OCCO3)c1)CN1CCc2ccccc2C1 (stereo unspecified) | 10000 to 40000 | 1000 to 10000 | 101 to 1000
OC(COc1cccc(-c2ccc3cn[nH]c3c2)c1)CN1CCc2ccccc2C1 (stereo unspecified) | 10000 to 40000 | 1000 to 10000 | 101 to 1000
OC(COc1cccc(-c2ccc3[nH]ncc3c2)c1)CN1CCc2ccccc2C1 (stereo unspecified) | > 20000 | 1000 to 10000 | 101 to 1000
COc1ccc(-c2cccc(OCC(O)CN3CCc4ccccc4C3)c2)c(C)c1 (stereo unspecified) | 10000 to 40000 | 1000 to 10000 | 101 to 1000
COc1cccc(-c2cccc(OCC(O)CN3CCc4ccccc4C3)c2)c1 (stereo unspecified) | 10000 to 40000 | 1000 to 10000 | 101 to 1000
OC(COc1cccc(-c2ccc3c(c2)OCO3)c1)CN1CCc2ccccc2C1 (stereo unspecified) | 10000 to 40000 | 10000 to 40000 | 101 to 1000
OCc1cccc(-c2cccc(OCC(O)CN3CCc4ccccc4C3)c2)c1 (stereo unspecified) | 10000 to 40000 | 1000 to 10000 | 101 to 1000
O=C1NCc2ccc(-c3cccc(OCC(O)CN4CCc5ccccc5C4)c3)cc21 (stereo unspecified) | 10000 to 40000 | 1000 to 10000 | 101 to 1000
CN(CC(O)CN1CCc2ccccc2C1)c1cccc(CNC2CCCC2)c1 (stereo unspecified) | 10000 to 40000 | 101 to 1000 | 101 to 1000
OC(COc1cccc(-c2cccc3cccnc23)c1)CN1CCc2ccccc2C1 (stereo unspecified) | 10000 to 40000 | 101 to 1000 | < 100
CC(=O)c1ccc(-c2cccc(OCC(O)CN3CCc4ccccc4C3)c2)cc1 (stereo unspecified) | > 20000 | 1000 to 10000 | 101 to 1000
OC(COc1cccc(-c2ccccc2Oc2ccccc2)c1)CN1CCc2ccccc2C1 (stereo unspecified) | > 20000 | 1000 to 10000 | 101 to 1000
OC(COc1cccc(-c2cccc(F)c2F)c1)CN1CCc2ccccc2C1 (stereo unspecified) | 10000 to 40000 | 10000 to 40000 | 101 to 1000
CS(=O)(=O)c1ccccc1-c1cccc(OCC(O)CN2CCc3ccccc3C2)c1 (stereo unspecified) | > 20000 | 1000 to 10000 | 101 to 1000
